Test system: healthy adult examinees
Assay: HRIPT (Human repeated insult patch tests), skin accumulated stimulus
Format: in vivo
Parameters: key to skin reactivity (ICDRG criteria): −: negative (no response); ±: doubtful or slight erythema, etc.; +: weak reaction (which is accompanied with no phlyctenule), erythema, papule; ++: severe reaction (which is accompanied with phylctenule), erythema, papule, phlyctenule; +++: strong reaction, bullae reaction
Details: for average reactivity: 9 patches, 15 examinees; for Number of examinees who exhibited ±, +, or ++ reactivity 1st: 1st patch; for Number of examinees who exhibited ±, +, or ++ reactivity 2nd: 2nd patch; for Number of examinees who exhibited ±, +, or ++ reactivity 3rd: 3rd patch; for Number of examinees who exhibited ±, +, or ++ reactivity 4th: 4th patch; for Number of examinees who exhibited ±, +, or ++ reactivity 5th: 5th patch; for Number of examinees who exhibited ±, +, or ++ reactivity 6th: 6th patch; for Number of examinees who exhibited ±, +, or ++ reactivity 7th: 7th patch; for Number of examinees who exhibited ±, +, or ++ reactivity 8th: 8th patch; for Number of examinees who exhibited ±, +, or ++ reactivity 9th: 9th patch
Protocol: HRIPT (Human repeated insult patch tests) was conducted in order to identify skin accumulated stimulus of quercetin3-O-[3-O″-(E)-p-coumaroyl][β-D-glucopyranosyl-(1→3)-O-α-L-rhamnopyranosyl-(1→6)-O-β-D-glucopyranoside] and quercetin3-O-[3-O″-(E)-p-coumaroyl][α-L-rhamnopyranosyl-(1→6)-O-β-D-glucopyranoside]and to calculate the concentration range that can be used in skin.
Specifically, 15 healthy adult examinees were randomly selected, and test compositions in which the compounds were respectively comprised in an amount of 0.5 wt. %, 1 wt. %, and 3 wt. % (the compositions for skin, comprising an emulsifying agent, a stabilizer, purified water, etc. in addition to the compounds) were dropped in the amount of 20 μl per chamber (IQ chamber, Epitest Ltd, Finland), and patched on the right site of the upper back of the examinees, and then, after 24 hours, the patch was replaced with a new patch. A total of 9 patches were conducted, three times a week for total 3 weeks, in such manner, the skin reactions before and after patch were examined every time, and the skin reactions until 48 hours after removing the final patch were observed, and the average reactivity was observed.
The skin reaction was determined according to the criteria of International Contact Dermatitis Research Group (ICDRG). In the above table, “New Material 31” refers to quercetin3-O-[3-O″-(E)-p-coumaroyl][β-D-glucopyranosyl-(1→3)-O-α-L-rhamnopyranosyl-(1→6)-O-β-D-glucopyranoside], and “New Material 32” refers to quercetin3-O-[3-O″-(E)-p-coumaroyl][α-L-rhamnopyranosyl-(1→6)-O-β-D-glucopyranoside].

C[C@@H]1O[C@@H](OC[C@H]2O[C@@H](Oc3c(-c4ccc(O)c(O)c4)oc4cc(O)cc(O)c4c3=O)[C@H](O)[C@@H](OC(=O)/C=C/c3ccc(O)cc3)[C@@H]2O)[C@H](O)[C@H](O)[C@H]1O [New Material 32, quercetin3-O-[3-O″-(E)-p-coumaroyl][α-L-rhamnopyranosyl-(1→6)-O-β-D-glucopyranoside]]
−: skin reactivity (ICDRG criteria) (0.5 wt.%, 1 wt.% and 3 wt.%, 9 patches in 3 weeks)
0 number: Number of examinees who exhibited ±, +, or ++ reactivity 1st (0.5 wt.%, line 1 of 3 (±)) | Number of examinees who exhibited ±, +, or ++ reactivity 1st (0.5 wt.%, line 2 of 3 (+)) | Number of examinees who exhibited ±, +, or ++ reactivity 1st (0.5 wt.%, line 3 of 3 (++)) | Number of examinees who exhibited ±, +, or ++ reactivity 2nd (0.5 wt.%, line 1 of 3 (±)) | Number of examinees who exhibited ±, +, or ++ reactivity 2nd (0.5 wt.%, line 2 of 3 (+)) | Number of examinees who exhibited ±, +, or ++ reactivity 2nd (0.5 wt.%, line 3 of 3 (++)) | Number of examinees who exhibited ±, +, or ++ reactivity 3rd (0.5 wt.%, line 1 of 3 (±)) | Number of examinees who exhibited ±, +, or ++ reactivity 3rd (0.5 wt.%, line 2 of 3 (+)) | Number of examinees who exhibited ±, +, or ++ reactivity 3rd (0.5 wt.%, line 3 of 3 (++)) | Number of examinees who exhibited ±, +, or ++ reactivity 4th (0.5 wt.%, line 1 of 3 (±)) | Number of examinees who exhibited ±, +, or ++ reactivity 4th (0.5 wt.%, line 2 of 3 (+)) | Number of examinees who exhibited ±, +, or ++ reactivity 4th (0.5 wt.%, line 3 of 3 (++)) | Number of examinees who exhibited ±, +, or ++ reactivity 5th (0.5 wt.%, line 1 of 3 (±)) | Number of examinees who exhibited ±, +, or ++ reactivity 5th (0.5 wt.%, line 2 of 3 (+)) | Number of examinees who exhibited ±, +, or ++ reactivity 5th (0.5 wt.%, line 3 of 3 (++)) | Number of examinees who exhibited ±, +, or ++ reactivity 6th (0.5 wt.%, line 1 of 3 (±)) | Number of examinees who exhibited ±, +, or ++ reactivity 6th (0.5 wt.%, line 2 of 3 (+)) | Number of examinees who exhibited ±, +, or ++ reactivity 6th (0.5 wt.%, line 3 of 3 (++)) | Number of examinees who exhibited ±, +, or ++ reactivity 7th (0.5 wt.%, line 1 of 3 (±)) | Number of examinees who exhibited ±, +, or ++ reactivity 7th (0.5 wt.%, line 2 of 3 (+)) | Number of examinees who exhibited ±, +, or ++ reactivity 7th (0.5 wt.%, line 3 of 3 (++)) | Number of examinees who exhibited ±, +, or ++ reactivity 8th (0.5 wt.%, line 1 of 3 (±)) | Number of examinees who exhibited ±, +, or ++ reactivity 8th (0.5 wt.%, line 2 of 3 (+)) | Number of examinees who exhibited ±, +, or ++ reactivity 8th (0.5 wt.%, line 3 of 3 (++)) | Number of examinees who exhibited ±, +, or ++ reactivity 9th (0.5 wt.%, line 1 of 3 (±)) | Number of examinees who exhibited ±, +, or ++ reactivity 9th (0.5 wt.%, line 2 of 3 (+)) | Number of examinees who exhibited ±, +, or ++ reactivity 9th (0.5 wt.%, line 3 of 3 (++)) | Number of examinees who exhibited ±, +, or ++ reactivity 1st (1 wt.%, line 1 of 3 (±)) | Number of examinees who exhibited ±, +, or ++ reactivity 1st (1 wt.%, line 2 of 3 (+)) | Number of examinees who exhibited ±, +, or ++ reactivity 1st (1 wt.%, line 3 of 3 (++)) | Number of examinees who exhibited ±, +, or ++ reactivity 2nd (1 wt.%, line 1 of 3 (±)) | Number of examinees who exhibited ±, +, or ++ reactivity 2nd (1 wt.%, line 2 of 3 (+)) | Number of examinees who exhibited ±, +, or ++ reactivity 2nd (1 wt.%, line 3 of 3 (++)) | Number of examinees who exhibited ±, +, or ++ reactivity 3rd (1 wt.%, line 1 of 3 (±)) | Number of examinees who exhibited ±, +, or ++ reactivity 3rd (1 wt.%, line 2 of 3 (+)) | Number of examinees who exhibited ±, +, or ++ reactivity 3rd (1 wt.%, line 3 of 3 (++)) | Number of examinees who exhibited ±, +, or ++ reactivity 4th (1 wt.%, line 1 of 3 (±)) | Number of examinees who exhibited ±, +, or ++ reactivity 4th (1 wt.%, line 2 of 3 (+)) | Number of examinees who exhibited ±, +, or ++ reactivity 4th (1 wt.%, line 3 of 3 (++)) | Number of examinees who exhibited ±, +, or ++ reactivity 5th (1 wt.%, line 1 of 3 (±)) | Number of examinees who exhibited ±, +, or ++ reactivity 5th (1 wt.%, line 2 of 3 (+)) | Number of examinees who exhibited ±, +, or ++ reactivity 5th (1 wt.%, line 3 of 3 (++)) | Number of examinees who exhibited ±, +, or ++ reactivity 6th (1 wt.%, line 1 of 3 (±)) | Number of examinees who exhibited ±, +, or ++ reactivity 6th (1 wt.%, line 2 of 3 (+)) | Number of examinees who exhibited ±, +, or ++ reactivity 6th (1 wt.%, line 3 of 3 (++)) | Number of examinees who exhibited ±, +, or ++ reactivity 7th (1 wt.%, line 1 of 3 (±)) | Number of examinees who exhibited ±, +, or ++ reactivity 7th (1 wt.%, line 2 of 3 (+)) | Number of examinees who exhibited ±, +, or ++ reactivity 7th (1 wt.%, line 3 of 3 (++)) | Number of examinees who exhibited ±, +, or ++ reactivity 8th (1 wt.%, line 1 of 3 (±)) | Number of examinees who exhibited ±, +, or ++ reactivity 8th (1 wt.%, line 2 of 3 (+)) | Number of examinees who exhibited ±, +, or ++ reactivity 8th (1 wt.%, line 3 of 3 (++)) | Number of examinees who exhibited ±, +, or ++ reactivity 9th (1 wt.%, line 1 of 3 (±)) | Number of examinees who exhibited ±, +, or ++ reactivity 9th (1 wt.%, line 2 of 3 (+)) | Number of examinees who exhibited ±, +, or ++ reactivity 9th (1 wt.%, line 3 of 3 (++)) | Number of examinees who exhibited ±, +, or ++ reactivity 1st (3 wt.%, line 1 of 3 (±)) | Number of examinees who exhibited ±, +, or ++ reactivity 1st (3 wt.%, line 2 of 3 (+)) | Number of examinees who exhibited ±, +, or ++ reactivity 1st (3 wt.%, line 3 of 3 (++)) | Number of examinees who exhibited ±, +, or ++ reactivity 2nd (3 wt.%, line 1 of 3 (±)) | Number of examinees who exhibited ±, +, or ++ reactivity 2nd (3 wt.%, line 2 of 3 (+)) | Number of examinees who exhibited ±, +, or ++ reactivity 2nd (3 wt.%, line 3 of 3 (++)) | Number of examinees who exhibited ±, +, or ++ reactivity 3rd (3 wt.%, line 1 of 3 (±)) | Number of examinees who exhibited ±, +, or ++ reactivity 3rd (3 wt.%, line 2 of 3 (+)) | Number of examinees who exhibited ±, +, or ++ reactivity 3rd (3 wt.%, line 3 of 3 (++)) | Number of examinees who exhibited ±, +, or ++ reactivity 4th (3 wt.%, line 1 of 3 (±)) | Number of examinees who exhibited ±, +, or ++ reactivity 4th (3 wt.%, line 2 of 3 (+)) | Number of examinees who exhibited ±, +, or ++ reactivity 4th (3 wt.%, line 3 of 3 (++)) | Number of examinees who exhibited ±, +, or ++ reactivity 5th (3 wt.%, line 1 of 3 (±)) | Number of examinees who exhibited ±, +, or ++ reactivity 5th (3 wt.%, line 2 of 3 (+)) | Number of examinees who exhibited ±, +, or ++ reactivity 5th (3 wt.%, line 3 of 3 (++)) | Number of examinees who exhibited ±, +, or ++ reactivity 6th (3 wt.%, line 1 of 3 (±)) | Number of examinees who exhibited ±, +, or ++ reactivity 6th (3 wt.%, line 2 of 3 (+)) | Number of examinees who exhibited ±, +, or ++ reactivity 6th (3 wt.%, line 3 of 3 (++)) | Number of examinees who exhibited ±, +, or ++ reactivity 7th (3 wt.%, line 1 of 3 (±)) | Number of examinees who exhibited ±, +, or ++ reactivity 7th (3 wt.%, line 2 of 3 (+)) | Number of examinees who exhibited ±, +, or ++ reactivity 7th (3 wt.%, line 3 of 3 (++)) | Number of examinees who exhibited ±, +, or ++ reactivity 8th (3 wt.%, line 1 of 3 (±)) | Number of examinees who exhibited ±, +, or ++ reactivity 8th (3 wt.%, line 2 of 3 (+)) | Number of examinees who exhibited ±, +, or ++ reactivity 8th (3 wt.%, line 3 of 3 (++)) | Number of examinees who exhibited ±, +, or ++ reactivity 9th (3 wt.%, line 1 of 3 (±)) | Number of examinees who exhibited ±, +, or ++ reactivity 9th (3 wt.%, line 2 of 3 (+)) | Number of examinees who exhibited ±, +, or ++ reactivity 9th (3 wt.%, line 3 of 3 (++))
0: average reactivity (0.5 wt.% in test composition) | average reactivity (1 wt.% in test composition) | average reactivity (3 wt.% in test composition)

— US11306117B2, “Whitening composition containing novel quercetin-based compound” (AMOREPACIFIC CORPORATION, priority 2017, dated 2022)
